Experimental data as given in ChEMBL document CHEMBL4477224, “Antidiabetic effect, antioxidant activity, and toxicity of 3',4'-Di-O-acetyl-cis-khellactone in Streptozotocin-induced diabetic rats” (Bioorg Med Chem Lett, 2016).
Active and inactive are the calls of the source. The calls are words filed in the database; no cut-off is given here.

What was measured:
Rattus norvegicus [1] = assay: Antidiabetic activity in STZ-induced diabetic Wistar rat assessed as body weight at 15 mg/kg, po administered for 15 days post STZ challenge measured on day 21 (reference value: 319.4 +/- 6.9 g); type: functional
Rattus norvegicus [2] = assay: Antidiabetic activity in STZ-induced diabetic Wistar rat blood assessed as urea level at 15 mg/kg, po administered for 15 days (reference value: 62.98 +/- 6.21 mg/dl); type: functional
Rattus norvegicus [3] = assay: Antidiabetic activity in STZ-induced diabetic Wistar rat blood assessed as cholesterol level at 15 mg/kg, po administered for 15 days (reference value: 80.09 +/- 9.35 mg/dl); type: functional
Rattus norvegicus [4] = assay: Antidiabetic activity in STZ-induced diabetic Wistar rat blood assessed as LDL level at 15 mg/kg, po administered for 15 days (reference value: 23.11 +/- 9.82 mg/dl); type: functional
[5] = Toxicity in STZ-induced diabetic Wistar rat kidney assessed as macroscopic pathologic lesions at 15 mg/kg, po administered for 15 days; type: organism-based; conditions: in vivo, 360 h
Rattus norvegicus [6] = assay: Antioxidant activity in STZ-induced diabetic Wistar rat liver assessed as catalase level measured as H2O2 consumption per mg of protein at 15 mg/kg, po administered for 15 days (reference value: 68.9 +/- 11.1 microM/min); type: functional
Rattus norvegicus [7] = assay: Antidiabetic activity in STZ-induced diabetic Wistar rat liver assessed as effect on central vein architecture at 15 mg/kg, po administered for 15 days by hematoxylin/eosin staining based microscopy; type: functional, organism-based
Rattus norvegicus [8] = assay: Antidiabetic activity in STZ-induced diabetic Wistar rat assessed as increase in beta cells at 15 mg/kg, po administered for 15 days by fluorescence microscopy; type: functional, organism-based
[9] = Mutagenicity in Salmonella typhimurium TA98 assessed as mutagenic index at 8.65 uM/plate after 48 hrs in presence of S9 fraction by Ames test relative to control; type: toxicity, subcellular; conditions: salmonella enterica subsp. enterica serovar typhimurium, s9, 48 h
[10] = Mutagenicity in Salmonella typhimurium TA98 assessed as mutagenic index at 17.30 uM/plate after 48 hrs in presence of S9 fraction by Ames test relative to control; type: toxicity, subcellular; conditions: salmonella enterica subsp. enterica serovar typhimurium, s9, 48 h, 17.3 µM
[11] = Mutagenicity in Salmonella typhimurium TA98 assessed as mutagenic index at 34.60 uM/plate after 48 hrs in presence of S9 fraction by Ames test relative to control; type: toxicity, subcellular; conditions: salmonella enterica subsp. enterica serovar typhimurium, s9, 48 h, 34.6 µM
[12] = Mutagenicity in Salmonella typhimurium TA98 assessed as mutagenic index at 17.30 uM/plate after 48 hrs in absence of S9 fraction by Ames test relative to control; type: toxicity; conditions: salmonella enterica subsp. enterica serovar typhimurium, s9, 48 h, 17.3 µM
[13] = Mutagenicity in Salmonella typhimurium TA100 assessed as mutagenic index at 17.30 uM/plate after 48 hrs in presence of S9 fraction by Ames test relative to control; type: toxicity, subcellular; conditions: salmonella enterica subsp. enterica serovar typhimurium, s9, 48 h, 17.3 µM
[14] = Mutagenicity in Salmonella typhimurium TA100 assessed as mutagenic index at 34.60 uM/plate after 48 hrs in presence of S9 fraction by Ames test relative to control; type: toxicity, subcellular; conditions: salmonella enterica subsp. enterica serovar typhimurium, s9, 48 h, 34.6 µM
[15] = Mutagenicity in Salmonella typhimurium TA100 assessed as mutagenic index at 100 uM/plate after 48 hrs in absence of S9 fraction by Ames test relative to control; type: toxicity; conditions: salmonella enterica subsp. enterica serovar typhimurium, s9, 48 h
[16] = Mutagenicity in Salmonella typhimurium TA102 assessed as mutagenic index at 8.65 uM/plate after 48 hrs in presence of S9 fraction by Ames test relative to control; type: toxicity, subcellular; conditions: salmonella enterica subsp. enterica serovar typhimurium, s9, 48 h
[17] = Mutagenicity in Salmonella typhimurium TA102 assessed as mutagenic index at 17.30 uM/plate after 48 hrs in presence of S9 fraction by Ames test relative to control; type: toxicity, subcellular; conditions: salmonella enterica subsp. enterica serovar typhimurium, s9, 48 h, 17.3 µM
[18] = Mutagenicity in Salmonella typhimurium TA102 assessed as mutagenic index at 34.60 uM/plate after 48 hrs in absence of S9 fraction by Ames test relative to control; type: toxicity; conditions: salmonella enterica subsp. enterica serovar typhimurium, s9, 48 h, 34.6 µM
[19] = Mutagenicity in Salmonella typhimurium TA102 assessed as mutagenic index at 50 uM/plate after 48 hrs in absence of S9 fraction by Ames test relative to control; type: toxicity; conditions: salmonella enterica subsp. enterica serovar typhimurium, s9, 48 h
[20] = Mutagenicity in Salmonella typhimurium TA102 assessed as mutagenic index at 100 uM/plate after 48 hrs in absence of S9 fraction by Ames test relative to control; type: toxicity; conditions: salmonella enterica subsp. enterica serovar typhimurium, s9, 48 h
[21] = Genotoxicity in BALB/c mouse blood at 300 mg/kg after 48 hrs by micronucleus assay; type: toxicity, organism-based; conditions: in vivo

`CC(=O)O[C@@H]1c2c(ccc3ccc(=O)oc23)OC(C)(C)[C@@H]1OC(C)=O` (relative stereo) [QUIANHUCOUMARIN D] showed an Activity (Rattus norvegicus [1]) of 365.1 g, an Activity (Rattus norvegicus [2]) of 42.04 mg/dL and an Activity (Rattus norvegicus [3]) of 70.84 mg/dL. The Activity (Rattus norvegicus [4]) was 22.38 mg/dL, the Activity [5] was “Non-Toxic” and the Activity (Rattus norvegicus [6]) was 94.8 µM/min. The Activity (Rattus norvegicus [7]) was “Active”, the Activity (Rattus norvegicus [8]) was “Active” and the Ratio [9] was 1.1. For the same compound, the Ratio [10] was 1.2, the Ratio [11] was 1.2 and the Ratio [12] was 1. It also gave a Ratio [13] of 0.9, a Ratio [14] of 0.8 and a Ratio [15] of 1.4. The Ratio [16] was 0.8, the Ratio [17] was 1.2 and the Ratio [18] was 1. For the same compound, the Ratio [19] was 1.1, the Ratio [20] was 0.8 and the Activity [21] was “Non-Toxic”.
